The subject of assay [1] is 320 GPCR Tango constructs. In words: PRESTO-Tango GPCRome counter-screen (beta-arrestin recruitment) in transiently transfected HTLA cells. The class given is cell-based. The conditions noted are these: 10 μM compound, 320 GPCRs. As for the experimental part:
The PRESTO-Tango GPCRome assay, which measures G-protein coupled receptors (GPCR) mediated beta-arrestin recruitment, was used to perform a HTS of related GPCRs to study specificity and selectivity of the RXFP2 agonists. A total of 320 GPCR Tango constructs were tested. Each of the GPCR constructs used in the assay contained a FLAG tag, the GPCR gene of interest, a Vasopressin 2 C-terminal tail, the TEV protease cleavage site, and the tetracycline-controlled transactivator (tTA) transcription factor. The assay was performed using transiently transfected HTLA cells that stably express the beta-arrestin2-TEV protease fusion protein and a luciferase reporter gene under the control of the tTA transcription factor. Ligand activation of the transfected GPCR construct induces beta-arrestin translocation to the GPCR, where the tobacco etch virus (TEV) protease cleaves the tTA transcription factor, causing activation of luciferase transcription in the nucleus. Thus, luciferase activity in these cells is proportional to beta-arrestin translocation activity. For this assay, HTLA cells were seeded in Poly-L-Lys (PLL)-coated 384-well white clear-bottom plates at 10,000 cell/well in 40 μl/well DMEM supplemented with 10% FBS. […] Plates were incubated for 20 minutes at room temperature protected from light and the luminescence signal was read on a MicroBeta counter (PerkinElmer, Waltham, MA). […]

For assay [2], the system named is chimera RXFP1-2 (extracellular domain of RXFP1, transmembrane domain of RXFP2). Briefly: HTRF cAMP assay in HEK293T cells transiently transfected with chimera RXFP1-2. The class given is cell-based, human. The source says: (§1) To further investigate the involvement of the RXFP2 extracellular and transmembrane domains in agonist activation of the receptor, two complementary chimeras were created using the RXFP1 receptor, which is not activated by the agonists of formula (I), to transiently transfect HEK293T cells and measured changes in cAMP induction using the HTRF assay.
(§2) Chimeric receptors were generated by IN-FUSION™ (Takara Bio USA, Inc., San Jose, CA) mutagenesis using full-length human RXFP1 and RXFP2 receptor constructs. Polymerase chain reaction (PCR) was performed using PfuTurbo high-fidelity DNA polymerase (Agilent Technologies, Santa Clara, CA) and overlapping primers with at least 15 bp sequence homology within the fusion site. PCR products were digested with Dpnl restricton enzyme at 37° C. overnight, run on a 0.8% agarose gel and purified using the GENEJET™ Gel extraction kit (Thermo Scientific, Waltham, MA). The purified DNA fragments were then ligated into the BamHI and XhoI pre-digested pcDNA3.1™/Zeo(+) AmpR mammalian expression vector using the In-Fusion HD enzyme premix (Clontech, Mountain View, CA) at 50° C. for 15 minutes, and the resulting product was used to transform Stellar competent cells (Takara Bio USA, Inc., San Jose, CA). The clones were fully sequenced to confirm the correct fusion of both receptor fragments. Chimera RXFP2-1 contained the extracellular domain of RXFP2 and the transmembrane domain of RXFP1. Accordingly, chimera RXFP1-2 contained the extracellular domain of RXFP1 and the transmembrane domain of RXFP2.
(§3) HEK293T cells were seeded in 6-well flat-bottom clear plates at 0.5 million cells/well in 2 mL/well of growth medium (DMEM, 10% FBS, 1× Pen/Strep) and allowed to attach overnight at 37° C. and 5% CO2. The next morning, cells were transfected with 2 μg of plasmid (chimeric receptors, WT RXFP2, or WT RXFP1) and 6 μl of Lipofectamine2000 (Invitrogen, Waltham, MA) in a total volume of 200 μl/well OPTI-MEM™ I (Thermo Fisher, Waltham, MA) reduced serum medium and allowed to incubate an additional 24 hours. The next day, transfected cells were seeded in 96-well flat-bottom opaque plates at 30,000 cells/well in 60 μL/well of serum-free DMEM medium and allowed to attach overnight at 37° C. at 5% CO2. The next morning, cells were treated with 1 μL/well of compound (25 μM-0.25 nM), 2 μM forskolin, or DMSO vehicle. Cells were also treated with 4 μL of positive control INSL3 (100-0.01 nM), Relaxin2 (100-10 nM), or vehicle (serum-free DMEM+IBMX). Plates were incubated for 1 hour at 37° C. and 5% CO2, after which kit cAMP-d2 and anti-cAMP antibody were added as previously described. Cells were incubated for 1 hour at room temperature, and then the signal was read on a CLARIOstar plate reader (BMG Labtech, Germany).
(In TR-FRET formats the signal depends on donor and acceptor labels being close together.)

In assay [3] the target is T1, chimera RXFP1-2 (extracellular domain of RXFP1, transmembrane domain of RXFP2) (Homo sapiens, UniProt Q8WXD0).
T1 construct: other: RXFP1-2 chimera; Emax; normalized to 2 μM forskolin cAMP response as 100% activity; fused on or other part: FLAG tag; The RXFP1 extracellular domain is the N-terminal part of the chimera and the RXFP2 transmembrane domain is the C-terminal part; Q9HBX9 (Relaxin receptor 1)
T1 sequence (Q8WXD0 417-754 limits assumed, change not shown): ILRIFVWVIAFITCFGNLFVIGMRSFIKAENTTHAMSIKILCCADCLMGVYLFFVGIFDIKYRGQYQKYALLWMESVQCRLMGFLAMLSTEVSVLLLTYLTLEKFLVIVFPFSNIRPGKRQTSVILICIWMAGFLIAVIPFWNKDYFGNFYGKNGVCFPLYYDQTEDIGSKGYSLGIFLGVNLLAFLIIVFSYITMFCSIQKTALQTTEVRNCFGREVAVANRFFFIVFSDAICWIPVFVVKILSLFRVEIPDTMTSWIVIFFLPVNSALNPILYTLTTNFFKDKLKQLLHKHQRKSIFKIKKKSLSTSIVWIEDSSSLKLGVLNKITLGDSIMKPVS
The assay is described as above. In kind it is cell-based. The conditions noted are these: RXFP1-2 chimera.
Text: as §1, §2, §3

In assay [4] the test system is trabecular bone of L3 vertebrae. Briefly: Bone anabolic study, microCT of L3 vertebrae. The class given is in vivo, C57BL/6J female mice. The conditions noted are these: 10 mg/kg oral gavage every other day, 8 weeks, vs vehicle.
Assay [5] concerns chimera RXFP2-1 (extracellular domain of RXFP2, transmembrane domain of RXFP1). Briefly: HTRF cAMP assay in HEK293T cells transiently transfected with chimera RXFP2-1. In kind it is cell-based, human.
Text: as §1, §2, §3

In the case of `O=C1Nc2ccc(-c3cc(C(F)(F)F)cc(C(F)(F)F)c3)cc2C(=O)N2CCN(C(=O)COc3ccc(OC(F)(F)F)cc3Br)C[C@@H]12` [Example 158, (S)-8-(3,5-Bis(trifluoromethyl)phenyl)-2-(2-(2-bromo-4-(trifluoromethoxy)phenoxy)acetyl)-1,3,4,12a-tetrahydrobenzo[e]pyrazino[1,2-a][1,4]diazepine-6,12 (2H, 11H)-dione], the “GPCR agonist hits (minimum 3.0-fold RLU of basal)” value in assay [1] is “very few GPCR hits”.
With `O=C1Nc2ccc(-c3cc(C(F)(F)F)cc(C(F)(F)F)c3)cc2C(=O)N2CCN(C(=O)COc3ccc(OC(F)(F)F)cc3I)C[C@@H]12` [Example 187, (S)-8-(3,5-bis(trifluoromethyl)phenyl)-2-(2-(2-iodo-4-(trifluoromethoxy)phenoxy)acetyl)-1,3,4,12a-tetrahydrobenzo[e]pyrazino[1,2-a][1,4]diazepine-6,12 (2H, 11H)-dione], the “cAMP response of chimera RXFP1-2” value in assay [2] is given as “levels comparable to WT RXFP2”. The compound also showed an Emax in assay [3] (HEK-293T, normalized to 2 μM forskolin cAMP response as 100% activity) of 96.47 ± 0.43%. Besides, the 50% effective concentration (EC50) in assay [3] (read-out: EC50 (μM or nM)) is 0.016 ± 0.002 µM. Also, in assay [4], the “bone volume per tissue volume (BV/TV)” value is listed as “small non-significant improvement”, the “trabecular number (Tb.N)” value is “significant increase”, the “trabecular separation (Tb.Sp)” value is on record as “small non-significant improvement” and the “trabecular thickness (Tb.Th)” value is “significant increase”. Also, in assay [5], the “cAMP response of chimera RXFP2-1” value is “no response”.

The Emax is the greatest response seen or fitted, relative to the assay's reference. The EC50 is the concentration that produces a half-maximal response.

The record behind these values is patent US20250134907A1, “FUSED DIAZEPINES AS AGONISTS OF THE INSULIN-LIKE 3 (INSL3) PEPTIDE RECEPTOR RXFP2 AND METHODS OF USE THEREOF” (The United States of America,as represented by the …, priority 2022, published 2025).
